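Grown in 96-well plates, cells were treated for 48 hours with each compound at five concentrations. Insufficient inhibition: endpoint recorded as highest concentration tested. GI50 is the concentration that inhibits growth by half.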 Activity calls are given as the source filed them. Cut-off read from the data, not from the text of the source: active = GI50 up to about 1.1 µM and inactive = higher.
Assays:
Assay in all cases: NCI anticancer screen, dose series, 48 h
A498 = test system: A498
COLO 205 = test system: COLO 205
HCT-116 = test system: HCT-116
HL-60 = test system: HL-60
HT-29 = test system: HT-29
MOLT-4 = test system: MOLT-4
NCI-H460 = test system: NCI-H460
OVCAR-5 = test system: OVCAR-5
OVCAR-8 = test system: OVCAR-8
SF-539 = test system: SF-539
SK-MEL-28 = test system: SK-MEL-28
SK-MEL-2 = test system: SK-MEL-2
SK-MEL-5 = test system: SK-MEL-5
SK-OV-3 = test system: SK-OV-3
UO-31 = test system: UO-31
SW-620 = test system: SW-620

Measured: GI50

COC(=O)C(=O)C(C(=O)C=C(C)C)C(=O)C(=O)Nc1ccc(Cl)cc1C (stereo not drawn)
inactive: A498 > 100 µM | COLO 205 > 100 µM | HCT-116 > 100 µM | HL-60 > 100 µM | HT-29 > 100 µM | MOLT-4 > 100 µM | NCI-H460 > 100 µM | OVCAR-5 > 100 µM | OVCAR-8 > 100 µM | SF-539 > 100 µM | SK-MEL-28 > 100 µM | SK-MEL-2 > 100 µM | SK-MEL-5 > 100 µM | SK-OV-3 > 100 µM | UO-31 > 100 µM

C/C(=N\Nc1ccccc1)c1sc(-c2nc(C)c(/C(C)=N/Nc3ccccc3)s2)nc1C
inactive: A498 > 46.1 µM | COLO 205 8.24 µM | HCT-116 33.7 µM | HL-60 31.8 µM | HT-29 9.06 µM | MOLT-4 19.2 µM | NCI-H460 42.2 µM | OVCAR-5 51.3 µM | OVCAR-8 33.4 µM | SF-539 16.1 µM | SK-MEL-28 > 48.2 µM | SK-MEL-2 > 100 µM | SK-MEL-5 16.7 µM | SK-OV-3 58.5 µM | SW-620 13.8 µM | UO-31 8.83 µM

O=C(CCN1CCCCC1CCO)Nc1ccc2c(c1)C(=O)c1ccc(NC(=O)CCN3CCCCC3CCO)cc1C2=O (stereo not drawn)
inactive: A498 1.86 µM | COLO 205 2.11 µM | HCT-116 4.11 µM | HL-60 3.24 µM | HT-29 5.52 µM | MOLT-4 4.25 µM | NCI-H460 3.6 µM | OVCAR-5 17.7 µM | OVCAR-8 3.73 µM | SF-539 2.1 µM | SK-MEL-28 10.1 µM | SK-MEL-2 2.49 µM | SK-MEL-5 9.4 µM | SK-OV-3 5.12 µM | SW-620 2.12 µM | UO-31 > 100 µM

CC1(C)C2CCC13C(=O)C1OC3(C2)C2C(=O)N(c3ccccc3)C(=O)C12 (stereo not drawn)
inactive: A498 > 100 µM | COLO 205 > 100 µM | HCT-116 > 100 µM | HL-60 > 100 µM | HT-29 51.4 µM | MOLT-4 > 100 µM | NCI-H460 > 100 µM | OVCAR-5 > 100 µM | OVCAR-8 > 100 µM | SF-539 > 100 µM | SK-MEL-2 > 100 µM | SK-MEL-5 > 100 µM | SK-OV-3 > 100 µM | SW-620 > 100 µM | UO-31 > 100 µM

CC(C)(C)c1ccccc1NS(=O)(=O)c1ccccc1
inactive: A498 > 100 µM | HCT-116 48 µM | HL-60 36.9 µM | HT-29 66.7 µM | MOLT-4 38 µM | NCI-H460 92 µM | OVCAR-5 > 100 µM | OVCAR-8 > 100 µM | SF-539 > 100 µM | SK-MEL-28 > 100 µM | SK-MEL-2 > 100 µM | SK-MEL-5 42.4 µM | SK-OV-3 > 100 µM | SW-620 > 100 µM | UO-31 30.1 µM

N#CCCN(CCC#N)c1ccc(/C=C2\N=C(COc3ccc(Cl)cc3Cl)OC2=O)cc1
inactive: A498 > 100 µM | COLO 205 > 100 µM | HCT-116 > 100 µM | HL-60 > 100 µM | HT-29 > 100 µM | MOLT-4 > 100 µM | NCI-H460 > 100 µM | OVCAR-5 > 100 µM | OVCAR-8 > 100 µM | SF-539 > 100 µM | SK-MEL-28 > 100 µM | SK-MEL-2 > 100 µM | SK-MEL-5 > 100 µM | SK-OV-3 > 100 µM | SW-620 > 100 µM | UO-31 > 100 µM

COc1ccc(C2S/C(=C\c3cccc(O)c3)C(=O)N2NC(=O)Cc2ccccc2)cc1 (stereo not drawn)
inactive: A498 > 100 µM | COLO 205 > 100 µM | HCT-116 > 100 µM | HL-60 > 100 µM | HT-29 > 100 µM | MOLT-4 > 100 µM | NCI-H460 > 100 µM | OVCAR-5 > 100 µM | OVCAR-8 > 100 µM | SF-539 > 100 µM | SK-MEL-2 > 100 µM | SK-MEL-5 > 100 µM | SK-OV-3 > 100 µM | SW-620 > 100 µM | UO-31 > 100 µM

COC(=O)c1c/c(=N\NC(=O)CC(=O)Nc2ccccc2Cl)c2ccccc2o1
inactive: A498 > 10 µM | COLO 205 > 100 µM | HCT-116 > 100 µM | HL-60 > 100 µM | HT-29 > 100 µM | MOLT-4 > 100 µM | NCI-H460 > 100 µM | OVCAR-5 > 100 µM | OVCAR-8 > 100 µM | SF-539 > 100 µM | SK-MEL-28 > 100 µM | SK-MEL-2 > 100 µM | SK-MEL-5 > 100 µM | SK-OV-3 > 100 µM | SW-620 > 100 µM | UO-31 91.4 µM

CCCCCC/C=C1\CCC(CN2CCCC2)C1=O (stereo not drawn)
inactive: A498 22.8 µM | COLO 205 16.4 µM | HCT-116 11.9 µM | HL-60 2.33 µM | HT-29 13.9 µM | MOLT-4 3.76 µM | NCI-H460 24.6 µM | OVCAR-5 18.3 µM | OVCAR-8 17.2 µM | SF-539 19 µM | SK-MEL-28 19.1 µM | SK-MEL-2 15.8 µM | SK-MEL-5 18.6 µM | SK-OV-3 18.7 µM | SW-620 > 28.2 µM | UO-31 18.9 µM

COC1=C(C)C(=O)c2c(cc3c(c2O)C(C)(CCC=C(C)C)C(C)O3)C1=O (stereo not drawn)
inactive: A498 16.3 µM | COLO 205 > 100 µM | HCT-116 > 100 µM | HL-60 > 100 µM | HT-29 37 µM | MOLT-4 > 100 µM | NCI-H460 14.1 µM | OVCAR-5 > 100 µM | OVCAR-8 > 100 µM | SF-539 > 100 µM | SK-MEL-28 > 100 µM | SK-MEL-2 30.2 µM | SK-MEL-5 13.4 µM | SK-OV-3 > 100 µM | SW-620 > 100 µM | UO-31 > 100 µM

CN(C)c1nnnn1-c1c(N)n(C)c(=O)n(C)c1=O
inactive: A498 > 100 µM | COLO 205 > 100 µM | HCT-116 > 100 µM | HL-60 > 100 µM | HT-29 > 100 µM | MOLT-4 > 100 µM | NCI-H460 > 100 µM | OVCAR-5 > 100 µM | OVCAR-8 > 100 µM | SF-539 > 100 µM | SK-MEL-28 > 100 µM | SK-MEL-2 > 100 µM | SK-MEL-5 > 100 µM | SK-OV-3 > 100 µM | SW-620 > 100 µM | UO-31 > 100 µM

C[C@]12CCC(=O)C[C@H]1CCC(O)[C@@H]2Br (stereo partly drawn)
inactive: A498 > 100 µM | COLO 205 > 100 µM | HCT-116 > 100 µM | HL-60 > 100 µM | HT-29 > 100 µM | MOLT-4 > 100 µM | NCI-H460 > 100 µM | OVCAR-5 > 100 µM | OVCAR-8 > 100 µM | SF-539 > 100 µM | SK-MEL-28 > 100 µM | SK-MEL-2 > 100 µM | SK-MEL-5 > 100 µM | SK-OV-3 > 100 µM | SW-620 > 100 µM | UO-31 > 100 µM
